Reference: ChEMBL document CHEMBL4308841, “Synthesis, in vitro antiproliferative activity, and kinase inhibitory effects of pyrazole-containing diarylureas and diarylamides” (Eur J Med Chem, 2018)

system: KM12; assay: Growth inhibition of human KM12 cells assessed as cell growth at 10 uM incubated for 48 hrs by sulforhodamine B assay relative to control; assay type: functional; conditions: KM12, 48 h, read-out: Activity

SMILES | growth at 10 µM [%]
COc1cc(Cl)cc(-c2nn(-c3cccc(NC(=O)c4cc(C(F)(F)F)cc(C(F)(F)F)c4)c3)cc2-c2ccncc2)c1 | 55.5

system: SF-295; assay: Growth inhibition of human SF295 cells assessed as cell growth at 10 uM incubated for 48 hrs by sulforhodamine B assay relative to control; assay type: functional; conditions: SF-295, 48 h, read-out: Activity

SMILES | growth at 10 µM [%]
COc1cc(Cl)cc(-c2nn(-c3cccc(NC(=O)c4cc(C(F)(F)F)cc(C(F)(F)F)c4)c3)cc2-c2ccncc2)c1 | 42.1

system: SF-268; assay: Growth inhibition of human SF268 cells assessed as cell growth at 10 uM incubated for 48 hrs by sulforhodamine B assay relative to control; assay type: functional; conditions: SF-268, 48 h, read-out: Activity

SMILES | growth at 10 µM [%]
COc1cc(Cl)cc(-c2nn(-c3cccc(NC(=O)c4cc(C(F)(F)F)cc(C(F)(F)F)c4)c3)cc2-c2ccncc2)c1 | 89.2

system: CCRF-CEM; assay: Growth inhibition of human CCRF-CEM cells assessed as cell growth at 10 uM incubated for 48 hrs by sulforhodamine B assay relative to control; assay type: functional; conditions: read-out: Activity

SMILES | growth at 10 µM [%]
COc1cc(Cl)cc(-c2nn(-c3cccc(NC(=O)c4cc(C(F)(F)F)cc(C(F)(F)F)c4)c3)cc2-c2ccncc2)c1 | 57.1

system: NCI-H23; assay: Growth inhibition of human NCI-H23 cells assessed as cell growth at 10 uM incubated for 48 hrs by sulforhodamine B assay relative to control; assay type: functional; conditions: NCI-H23, 48 h, read-out: Activity

SMILES | growth at 10 µM [%]
COc1cc(Cl)cc(-c2nn(-c3cccc(NC(=O)c4cc(C(F)(F)F)cc(C(F)(F)F)c4)c3)cc2-c2ccncc2)c1 | 72.1

system: HCT-15; assay: Growth inhibition of human HCT15 cells assessed as cell growth at 10 uM incubated for 48 hrs by sulforhodamine B assay relative to control; assay type: functional; conditions: HCT-15, 48 h, read-out: Activity

SMILES | growth at 10 µM [%]
COc1cc(Cl)cc(-c2nn(-c3cccc(NC(=O)c4cc(C(F)(F)F)cc(C(F)(F)F)c4)c3)cc2-c2ccncc2)c1 | 58.6

system: OVCAR-4; assay: Growth inhibition of human OVCAR4 cells assessed as cell growth at 10 uM incubated for 48 hrs by sulforhodamine B assay relative to control; assay type: functional; conditions: OVCAR-4, 48 h, read-out: Activity

SMILES | growth at 10 µM [%]
COc1cc(Cl)cc(-c2nn(-c3cccc(NC(=O)c4cc(C(F)(F)F)cc(C(F)(F)F)c4)c3)cc2-c2ccncc2)c1 | 72.1

system: Malme-3M; assay: Growth inhibition of human MALME-3M cells assessed as cell growth at 10 uM incubated for 48 hrs by sulforhodamine B assay relative to control; assay type: functional; conditions: read-out: Activity

SMILES | growth at 10 µM [%]
COc1cc(Cl)cc(-c2nn(-c3cccc(NC(=O)c4cc(C(F)(F)F)cc(C(F)(F)F)c4)c3)cc2-c2ccncc2)c1 | 104

system: COLO 205; assay: Growth inhibition of human COLO205 cells assessed as cell growth at 10 uM incubated for 48 hrs by sulforhodamine B assay relative to control; assay type: functional; conditions: COLO 205, 48 h, read-out: Activity

SMILES | growth at 10 µM [%]
COc1cc(Cl)cc(-c2nn(-c3cccc(NC(=O)c4cc(C(F)(F)F)cc(C(F)(F)F)c4)c3)cc2-c2ccncc2)c1 | 88.7

system: BT-549; assay: Growth inhibition of human BT549 cells assessed as cell growth at 10 uM incubated for 48 hrs by sulforhodamine B assay relative to control; assay type: functional; conditions: BT-549, 48 h, read-out: Activity

SMILES | growth at 10 µM [%]
COc1cc(Cl)cc(-c2nn(-c3cccc(NC(=O)c4cc(C(F)(F)F)cc(C(F)(F)F)c4)c3)cc2-c2ccncc2)c1 | 96.8

system: A498; assay: Growth inhibition of human A498 cells assessed as cell growth at 10 uM incubated for 48 hrs by sulforhodamine B assay relative to control; assay type: functional; conditions: A498, 48 h, read-out: Activity

SMILES | growth at 10 µM [%]
COc1cc(Cl)cc(-c2nn(-c3cccc(NC(=O)c4cc(C(F)(F)F)cc(C(F)(F)F)c4)c3)cc2-c2ccncc2)c1 | -1.74

system: OVCAR-5; assay: Growth inhibition of human OVCAR5 cells assessed as cell growth at 10 uM incubated for 48 hrs by sulforhodamine B assay relative to control; assay type: functional; conditions: OVCAR-5, 48 h, read-out: Activity

SMILES | growth at 10 µM [%]
COc1cc(Cl)cc(-c2nn(-c3cccc(NC(=O)c4cc(C(F)(F)F)cc(C(F)(F)F)c4)c3)cc2-c2ccncc2)c1 | 83

system: U-251; assay: Growth inhibition of human U251 cells assessed as cell growth at 10 uM incubated for 48 hrs by sulforhodamine B assay relative to control; assay type: functional; conditions: U-251, 48 h, read-out: Activity

SMILES | growth at 10 µM [%]
COc1cc(Cl)cc(-c2nn(-c3cccc(NC(=O)c4cc(C(F)(F)F)cc(C(F)(F)F)c4)c3)cc2-c2ccncc2)c1 | 60.7

system: MDA-MB-231; assay: Growth inhibition of human MDA-MB-231 cells assessed as cell growth at 10 uM incubated for 48 hrs by sulforhodamine B assay relative to control; assay type: functional; conditions: MDA-MB-231, 48 h, read-out: Activity

SMILES | growth at 10 µM [%]
COc1cc(Cl)cc(-c2nn(-c3cccc(NC(=O)c4cc(C(F)(F)F)cc(C(F)(F)F)c4)c3)cc2-c2ccncc2)c1 | 56.7

system: Hs-578T; assay: Growth inhibition of human Hs578T cells assessed as cell growth at 10 uM incubated for 48 hrs by sulforhodamine B assay relative to control; assay type: functional; conditions: read-out: Activity

SMILES | growth at 10 µM [%]
COc1cc(Cl)cc(-c2nn(-c3cccc(NC(=O)c4cc(C(F)(F)F)cc(C(F)(F)F)c4)c3)cc2-c2ccncc2)c1 | 81.1

system: M14; assay: Growth inhibition of human M14 cells assessed as cell growth at 10 uM incubated for 48 hrs by sulforhodamine B assay relative to control; assay type: functional; conditions: M14, 48 h, read-out: Activity

SMILES | growth at 10 µM [%]
COc1cc(Cl)cc(-c2nn(-c3cccc(NC(=O)c4cc(C(F)(F)F)cc(C(F)(F)F)c4)c3)cc2-c2ccncc2)c1 | 67.3
